The text below walks through data of ChEMBL document CHEMBL1130485, “Novel low molecular renin inhibitors which show good oral blood pressure lowering effects in marmosets” (Bioorg Med Chem Lett, 1997).

One experiment has as its target T1, Renin (Homo sapiens, UniProt P00797).
T1 sequence (P00797 whole entry): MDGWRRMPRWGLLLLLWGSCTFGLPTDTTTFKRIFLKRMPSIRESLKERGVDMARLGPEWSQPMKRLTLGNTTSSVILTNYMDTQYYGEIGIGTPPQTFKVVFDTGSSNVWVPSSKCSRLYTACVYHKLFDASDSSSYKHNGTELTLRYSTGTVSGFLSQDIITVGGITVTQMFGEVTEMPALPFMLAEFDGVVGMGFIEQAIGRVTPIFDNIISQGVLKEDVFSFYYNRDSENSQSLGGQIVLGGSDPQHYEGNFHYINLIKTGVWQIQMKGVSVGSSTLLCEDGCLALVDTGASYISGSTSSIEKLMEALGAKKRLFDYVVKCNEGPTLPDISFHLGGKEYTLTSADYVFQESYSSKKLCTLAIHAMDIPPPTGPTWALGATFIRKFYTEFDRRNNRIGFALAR
Description: In vitro renin inhibitory effect was evaluated for plasma renin activity (PRA) of human plasma, Expressed as IC50. It is filed as cell-free.

A short description of experiment [1]: In vivo blood pressure lowering effects in salt depleted conscious marmosets was determined when a dose of 10mg/Kg, po. at 3h. The experiment is classed as functional, Callitrichinae.
Experiment [2] in a line: In vivo blood pressure lowering effects in salt depleted conscious marmosets was determined when a dose of 10mg/Kg, po. at 0.5 hr. It is filed as functional, Callitrichinae.
Experiment [3] is described as follows: In vivo blood pressure lowering effects in salt depleted conscious marmosets was determined when a dose of 10mg/Kg, po. at 1 hr. The experiment is classed as functional, Callitrichinae.
For experiment [4], the target named is T2, Renin (Rattus norvegicus) (UniProt P08424).
T2 sequence (whole entry): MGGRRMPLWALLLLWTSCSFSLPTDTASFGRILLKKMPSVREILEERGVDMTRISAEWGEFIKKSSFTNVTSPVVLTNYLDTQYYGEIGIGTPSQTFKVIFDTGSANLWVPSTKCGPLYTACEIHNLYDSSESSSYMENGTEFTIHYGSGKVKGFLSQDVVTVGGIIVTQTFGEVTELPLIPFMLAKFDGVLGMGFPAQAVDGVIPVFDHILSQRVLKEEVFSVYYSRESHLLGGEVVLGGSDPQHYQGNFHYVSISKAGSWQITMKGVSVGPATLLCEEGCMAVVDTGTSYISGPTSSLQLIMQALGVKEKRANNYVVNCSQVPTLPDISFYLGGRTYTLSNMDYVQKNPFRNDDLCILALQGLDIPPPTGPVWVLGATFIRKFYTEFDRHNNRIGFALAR
Description: In vitro percent Inhibitory activity against rat plasma renin at the concentration of 100000 nM. It is filed as cell-free.

Experiment [5] deals with T3, Angiotensin-converting enzyme (Homo sapiens, UniProt P12821). Briefly: Percent Inhibitory activity against angiotensin-converting enzyme (ACE) human at the concentration of 100000 nM.
The target of another experiment is Pepsin A (Sus scrofa) (UniProt P00791). Description: Percent Inhibitory activity against pepsin at the concentration of 100000 nM.
In a further experiment the target is T4, Cathepsin D (Bos taurus, UniProt P80209).
T4 sequence (P80209 whole entry): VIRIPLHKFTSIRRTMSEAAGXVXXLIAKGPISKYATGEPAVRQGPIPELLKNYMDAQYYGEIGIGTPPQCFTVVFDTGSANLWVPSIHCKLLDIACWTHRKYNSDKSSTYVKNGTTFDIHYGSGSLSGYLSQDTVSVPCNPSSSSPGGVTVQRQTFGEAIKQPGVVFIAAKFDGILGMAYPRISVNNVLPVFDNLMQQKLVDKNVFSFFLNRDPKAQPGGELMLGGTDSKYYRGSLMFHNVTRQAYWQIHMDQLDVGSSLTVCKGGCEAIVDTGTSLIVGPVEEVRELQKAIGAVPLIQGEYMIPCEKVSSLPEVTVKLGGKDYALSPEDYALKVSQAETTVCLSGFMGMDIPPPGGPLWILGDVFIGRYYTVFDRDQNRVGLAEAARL
Description: Inhibitory activity against cathepsin D (bovine), expressed as IC50.

Experiment [6] addresses T3, Angiotensin-converting enzyme. Briefly: Inhibitory activity against ACE human, expressed as IC50.
The next experiment addresses Pepsin A (Sus scrofa, UniProt P00791). Description: In vitro inhibitory effect was evaluated against pepsin, Expressed as IC50.

T3 sequence (P12821 whole entry): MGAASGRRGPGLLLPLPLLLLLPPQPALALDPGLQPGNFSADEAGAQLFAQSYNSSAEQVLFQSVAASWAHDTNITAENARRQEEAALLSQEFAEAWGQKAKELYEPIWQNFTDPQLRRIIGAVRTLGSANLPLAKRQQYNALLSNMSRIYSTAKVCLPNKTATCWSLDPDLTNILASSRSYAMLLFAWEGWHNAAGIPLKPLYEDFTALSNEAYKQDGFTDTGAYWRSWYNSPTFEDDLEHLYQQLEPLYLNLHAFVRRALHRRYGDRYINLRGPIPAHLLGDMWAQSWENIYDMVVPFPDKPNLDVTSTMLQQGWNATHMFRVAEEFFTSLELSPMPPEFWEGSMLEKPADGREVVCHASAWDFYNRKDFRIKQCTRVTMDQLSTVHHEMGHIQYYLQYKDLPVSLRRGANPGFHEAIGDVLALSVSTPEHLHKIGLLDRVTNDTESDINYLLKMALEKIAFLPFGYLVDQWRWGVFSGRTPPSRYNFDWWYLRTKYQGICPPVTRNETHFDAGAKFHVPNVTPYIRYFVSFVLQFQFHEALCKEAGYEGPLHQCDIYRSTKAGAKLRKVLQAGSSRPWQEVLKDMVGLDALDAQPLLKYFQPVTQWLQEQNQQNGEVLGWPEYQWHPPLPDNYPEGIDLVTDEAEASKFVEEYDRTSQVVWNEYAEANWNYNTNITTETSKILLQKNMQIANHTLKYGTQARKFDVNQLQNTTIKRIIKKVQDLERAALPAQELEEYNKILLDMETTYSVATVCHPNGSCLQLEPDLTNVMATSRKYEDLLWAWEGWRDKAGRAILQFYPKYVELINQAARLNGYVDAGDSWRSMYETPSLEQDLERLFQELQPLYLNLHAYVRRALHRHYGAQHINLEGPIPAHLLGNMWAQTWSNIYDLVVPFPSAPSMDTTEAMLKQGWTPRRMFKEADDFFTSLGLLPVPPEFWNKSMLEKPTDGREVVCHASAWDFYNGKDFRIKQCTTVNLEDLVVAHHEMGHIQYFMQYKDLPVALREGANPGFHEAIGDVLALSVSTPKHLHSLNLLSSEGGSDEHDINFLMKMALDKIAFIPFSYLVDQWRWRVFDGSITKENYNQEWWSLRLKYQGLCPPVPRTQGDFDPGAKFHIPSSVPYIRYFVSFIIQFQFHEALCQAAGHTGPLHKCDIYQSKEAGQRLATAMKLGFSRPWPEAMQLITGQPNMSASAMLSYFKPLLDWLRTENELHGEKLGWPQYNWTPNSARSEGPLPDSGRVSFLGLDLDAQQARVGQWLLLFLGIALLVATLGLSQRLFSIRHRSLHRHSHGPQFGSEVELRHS
Chain of Pepsin A (Sus scrofa) (P00791 60-385 limits assumed): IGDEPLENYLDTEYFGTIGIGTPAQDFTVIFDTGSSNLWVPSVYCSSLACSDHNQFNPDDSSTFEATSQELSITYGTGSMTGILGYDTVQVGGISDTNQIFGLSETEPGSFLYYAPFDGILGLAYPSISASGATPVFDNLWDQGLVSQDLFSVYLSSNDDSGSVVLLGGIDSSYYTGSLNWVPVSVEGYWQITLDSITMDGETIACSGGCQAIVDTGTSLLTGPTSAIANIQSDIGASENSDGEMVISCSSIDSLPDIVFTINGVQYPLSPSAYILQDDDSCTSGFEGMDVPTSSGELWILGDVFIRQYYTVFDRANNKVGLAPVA
Chain of Pepsin A (P00791 whole entry): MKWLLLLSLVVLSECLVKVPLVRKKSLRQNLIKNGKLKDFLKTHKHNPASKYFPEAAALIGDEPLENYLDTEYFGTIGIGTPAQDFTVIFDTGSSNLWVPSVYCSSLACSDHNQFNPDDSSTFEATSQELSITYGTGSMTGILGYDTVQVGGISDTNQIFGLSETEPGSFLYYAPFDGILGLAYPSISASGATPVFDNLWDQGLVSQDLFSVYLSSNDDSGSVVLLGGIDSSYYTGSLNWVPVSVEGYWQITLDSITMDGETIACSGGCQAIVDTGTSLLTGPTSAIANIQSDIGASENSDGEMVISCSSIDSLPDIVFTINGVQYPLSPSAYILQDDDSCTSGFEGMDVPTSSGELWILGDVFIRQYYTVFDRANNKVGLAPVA

`CC(C)[C@@H](O)C[C@H](O)[C@H](CC1CCCCC1)NC(=O)[C@H](Cc1c[nH]cn1)NC(=O)c1cc2ccccc2cn1` registered an IC50 against Renin of 790 nM.

Regarding `CC(C)[C@@H](O)C[C@H](O)[C@H](CC1CCCCC1)NC(=O)[C@H](Cc1c[nH]cn1)NC(=O)c1ccc[nH]1`, the IC50 on Renin was found to be 3000 nM.

For `CC(C)[C@@H](O)C[C@H](O)[C@H](CC1CCCCC1)NC(=O)[C@H](Cc1c[nH]cn1)NC(=O)c1cc2cc(F)ccc2[nH]1`, the IC50 at Renin is 46 nM. For the same molecule, the “Delta SBP” value was -12 mmHg in [1], -18 mmHg in [2] and -21 mmHg in experiment [3].

`CC(C)[C@@H](O)C[C@H](O)[C@H](CC1CCCCC1)NC(=O)[C@H](Cc1cnc[nH]1)NC(=O)[C@@H]1Cc2ccccc2CN1` came in with an IC50 at Renin of 420 nM.

In the case of `CC(C)[C@@H](O)C[C@H](O)[C@H](CC1CCCCC1)NC(=O)[C@H](Cc1c[nH]cn1)NC(=O)c1cc2cc(Cl)ccc2[nH]1`, the IC50 against Renin amounted to 260 nM.

Consider `CC(C)[C@@H](O)C[C@H](O)[C@H](CC1CCCCC1)NC(=O)[C@H](Cc1cnc[nH]1)NC(=O)C1Cc2ccccc2N1` (stereo in doubt; 4), for which, at Renin, the 50% inhibitory concentration (IC50) was found to be 880 nM.

In turn, `CC(C)[C@@H](O)C[C@H](O)[C@H](CC1CCCCC1)NC(=O)[C@H](Cc1c[nH]cn1)NC(=O)c1cc2ccccc2o1` came in with an IC50 at Renin of 140 nM.

On Renin, `CC(C)[C@@H](O)C[C@H](O)[C@H](CC1CCCCC1)NC(=O)[C@H](Cc1c[nH]cn1)NC(=O)c1nc2ccccc2[nH]1` registered an IC50 of 13 nM. The figures for the “Delta SBP” value in [1], in experiment [2] and in experiment [3] were -7 mmHg, -9 mmHg and -13 mmHg, respectively.

`CC(C)[C@@H](O)C[C@H](O)[C@H](CC1CCCCC1)NC(=O)[C@H](Cc1cnc[nH]1)NC(=O)c1cc2cc(O)ccc2[nH]1`: the IC50 at Renin was found to be 600 nM.

As for `CC(C)[C@@H](O)C[C@H](O)[C@H](CC1CCCCC1)NC(=O)[C@H](Cc1c[nH]cn1)NC(=O)c1cc2ccccc2c(O)n1`, at Renin, the IC50 turned out to be 48 nM. In addition, the figures for the “Delta SBP” value in [1], in experiment [2] and in experiment [3] were 2 mmHg, -5 mmHg and 1 mmHg, respectively.

In turn, `CC(=O)n1c(C(=O)N[C@@H](Cc2cnc[nH]2)C(=O)N[C@@H](CC2CCCCC2)[C@@H](O)C[C@H](O)C(C)C)cc2ccccc21` returned an IC50 against Renin of 340 nM.

For the molecule `CC(C)[C@@H](O)C[C@H](O)[C@H](CC1CCCCC1)NC(=O)[C@H](Cc1c[nH]cn1)NC(=O)c1cc2ccccc2[nH]1`, the inhibition in experiment [4] stood at 41.1%; in experiment [5] it was 6%; against Pepsin A (Sus scrofa) it was 5.6%. For the same molecule, the “Delta SBP” value in experiment [1] is on record as -13 mmHg; in experiment [2] it was -12 mmHg; in experiment [3], -15 mmHg.

`CC(C)[C@@H](O)C[C@H](O)[C@H](CC1CCCCC1)NC(=O)[C@H](Cc1cnc[nH]1)NC(=O)c1cc2ccccc2[nH]1`: the IC50 (against Cathepsin D; in experiment [6]; against Pepsin A) was > 100000 nM in each case.

`CC(C)[C@@H](O)C[C@H](O)[C@H](CC1CCCCC1)NC(=O)[C@H](Cc1cnc[nH]1)N(C)C(=O)[C@H](Cc1ccccc1)NC(=O)N1CCC(O)CC1` came in with an IC50 against Renin of 0.68 nM.

On to `CC(C)[C@@H](O)C[C@H](O)[C@H](CC1CCCCC1)NC(=O)[C@H](Cc1cnc[nH]1)NC(=O)c1cc2ccccc2s1`, for which the IC50 against Renin was 8200 nM.

Regarding `CC(C)[C@@H](O)C[C@H](O)[C@H](CC1CCCCC1)NC(=O)[C@H](Cc1cnc[nH]1)NC(=O)C1Cc2ccccc2N1` (stereo in doubt), the IC50 at Renin was found to be 4400 nM.

With `CC(C)[C@@H](O)C[C@H](O)[C@H](CC1CCCCC1)NC(=O)[C@H](Cc1cnc[nH]1)NC(=O)c1cc2cccnc2[nH]1`, it took 800 nM to reach half-maximal inhibition on Renin (IC50).
